Like-named read-outs stand apart in the source and are kept apart here.
Columns and labels:
human factor Xa = molecular target: T1, human factor Xa (Homo sapiens, UniProt P00742); assay: Factor Xa assay (chromogenic, substrate S-2765); assay type: biochemical
T1 construct: purchased Enzyme Research Laboratories, Inc; South Bend, Ind
Protocol: (§1) Purified enzymes are used in chromogenic assays.
(§2) Ki=IC50/{1+(substrate concentration/Km)}
The assay was performed by pre-incubating the compound of interest of formula I plus enzyme for 10 min. The assay was then initiated by adding substrate to obtain a final volume of 100 μl. The initial velocity of chromogenic substrate hydrolysis was measured by the change in absorbance at 405 nm using a Bio-tek Instruments kinetic plate reader (Ceres UV9OOHDi) at 25° C. during the linear portion of the time course (usually 1.5 min after addition of substrate).

[1] = molecular target: T2, factor VIIa/tissue factor (Homo sapiens, UniProt P08709); assay: Factor VIIa assay (chromogenic, substrate S-2288); assay type: biochemical
T2 construct: 25 μl human factor VIIa and TF (5 nM and 10 nM, respective final concentrations)
Protocol: as §1, §2
Kinetic assays were conducted at 25° C. in half-area microtiter plates (Costar Corp., Cambridge, Mass.) using a kinetic plate reader (Molecular Devices Spectramax 250).

[2] = inhibition constant for inhibition of factor VIIa, 5 nM factor VIIa and 10 nM TF, 25° C., 500 μM substrate, read-out: Ki (FVIIa)
[3] = inhibition constant for inhibition of factor Xa, 25° C., 0.5 nM enzyme, 140 μM substrate, read-out: Ki (FXa)

T1 sequence (P00742 235-488 limits assumed): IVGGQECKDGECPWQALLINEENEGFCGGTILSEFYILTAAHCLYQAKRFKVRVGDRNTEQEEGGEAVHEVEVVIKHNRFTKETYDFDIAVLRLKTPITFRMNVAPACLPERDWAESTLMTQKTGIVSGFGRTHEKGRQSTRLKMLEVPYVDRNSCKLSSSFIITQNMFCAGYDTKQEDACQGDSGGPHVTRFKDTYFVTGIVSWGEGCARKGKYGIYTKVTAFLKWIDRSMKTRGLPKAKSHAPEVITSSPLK
T1 sequence (P00742 41-179 limits assumed): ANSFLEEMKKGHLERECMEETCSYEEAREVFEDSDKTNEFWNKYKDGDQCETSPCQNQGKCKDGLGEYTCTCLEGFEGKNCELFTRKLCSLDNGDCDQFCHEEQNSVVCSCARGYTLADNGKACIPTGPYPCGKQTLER
T2 sequence (P08709 61-212): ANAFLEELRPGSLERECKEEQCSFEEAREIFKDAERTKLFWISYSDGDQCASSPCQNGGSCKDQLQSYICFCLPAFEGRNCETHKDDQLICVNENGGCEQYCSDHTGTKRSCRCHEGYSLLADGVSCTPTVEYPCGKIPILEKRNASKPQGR
T2 sequence (P08709 213-466): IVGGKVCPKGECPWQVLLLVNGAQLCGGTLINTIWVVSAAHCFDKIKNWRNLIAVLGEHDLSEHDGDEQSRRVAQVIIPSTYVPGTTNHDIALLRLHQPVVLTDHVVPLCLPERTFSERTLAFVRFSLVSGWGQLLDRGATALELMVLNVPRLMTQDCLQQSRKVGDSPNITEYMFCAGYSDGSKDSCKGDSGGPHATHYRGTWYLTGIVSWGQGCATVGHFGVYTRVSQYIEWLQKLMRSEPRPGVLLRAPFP
T2 sequence (P13726 33-295, further chain): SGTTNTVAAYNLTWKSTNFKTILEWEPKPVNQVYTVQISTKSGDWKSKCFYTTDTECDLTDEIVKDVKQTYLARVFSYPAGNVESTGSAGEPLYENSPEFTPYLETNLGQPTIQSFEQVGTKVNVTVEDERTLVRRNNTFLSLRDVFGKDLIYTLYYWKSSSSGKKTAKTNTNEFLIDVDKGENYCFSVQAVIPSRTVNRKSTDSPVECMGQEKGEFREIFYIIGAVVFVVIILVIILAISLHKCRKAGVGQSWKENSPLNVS

| SMILES | Ki (human factor Xa) | Ki [1, 2] | Ki (human factor Xa; [3]) | Ki [1] |
| --- | --- | --- | --- | --- |
| N=C(N)NCCC[C@H](NC(=O)c1ccc([N+](=O)[O-])c(OCCc2ccc(Cl)cc2Cl)c1)C(N)=O [Example 1, (S)-4-Nitro-N-(1-carbamoyl-4-guanidinobutyl)-3-[2-(2,4-dichlorophenyl)ethoxy]benzamide] | 48 nM | 188000 nM |  |  |
| N=C(N)NCCC[C@H](NC(=O)c1ccc(N)c(OCCc2ccc(Cl)cc2Cl)c1)C(N)=O [Example 2, (S)-4-Amino-N-(-carbamoyl-4-guanidinobutyl)-3-[2-(2,4-dichlorophenyl)ethoxy]benzamide] |  |  | 76 nM |  |
| CC(=O)Nc1ccc(C(=O)N[C@@H](CCCNC(=N)N)C(N)=O)cc1OCCc1ccc(Cl)cc1Cl [Example 3, (S)-4-Acetylamino-N-(1-carbamoyl-4-guanidinobutyl)-3-[2-(2,4-dichlorophenyl)ethoxy]benzamide] |  |  | 670 nM |  |
| N=C(N)NCCC[C@H](NC(=O)c1ccc(NC(=O)CCC(=O)O)c(OCCc2ccc(Cl)cc2Cl)c1)C(N)=O [Example 4, (S)-N-{4-(1-Carbamoyl-4-guanidinobutylcarbamoyl)-2-[2-(2,4-dichlorophenyl)ethoxy]phenyl}succinamic Acid] | 354 nM | 42000 nM |  |  |
| N=C(N)NCCC[C@H](NC(=O)c1cc(O)c(Br)c(OCCc2ccc(Cl)cc2Cl)c1)C(N)=O [Example 5, (S)-4-Bromo-N-(1-carbamoyl-4-guanidinobutyl)-3-[2-(2,4-dichlorophenyl)-ethoxy]-5-hydroxybenzamide] | 18 nM | 58000 nM |  |  |
| Cc1c(O)cc(C(=O)N[C@@H](CCCNC(=N)N)C(N)=O)cc1OCCc1ccc(Cl)cc1Cl [Example 6, (S)-N-(1-Carbamoyl-4-guanidinobutyl)-3-[2-(2,4-dichlorophenyl)ethoxy]-5-hydroxy-4-methylbenzamide] | 38 nM | 7500 nM |  |  |
| N=C(N)NCCC[C@H](NC(=O)c1cccc(OCCc2ccc(Cl)cc2)c1)C(N)=O [Example 8] | 1100 nM |  |  |  |
| N=C(N)NCCC[C@H](NC(=O)c1ccc([N+](=O)[O-])c(OCCc2ccc(Cl)cc2)c1)C(N)=O [Example 11] | 192 nM |  |  |  |
| Cc1ccc(CCOc2cccc(C(=O)N[C@@H](CCCNC(=N)N)C(N)=O)c2)cc1 [Example 16] | 6150 nM |  |  |  |
| Cc1cc(C)c(CCOc2cc(C(=O)N[C@@H](CCCNC(=N)N)C(N)=O)nc3ccccc23)c(C)c1 [Example 32] | 13000 nM |  |  | 13000 nM |
| N=C(N)NCCC[C@H](NC(=O)c1cc(OCCc2ccc(Cl)cc2Cl)c2ccccc2n1)C(N)=O [Example 34] | 750 nM | 9800 nM |  |  |
| N=C(N)NCCC[C@H](NC(=O)c1cc(O)c(Br)c(OCCc2ccc(Cl)cc2Cl)c1)C(=O)NCc1cccnc1 [Example 39, (S)-4-Bromo-3-[2-(2,4-dichlorophenyl)ethoxy]-N-{4-guanidino-1-[(pyridin-3-ylmethyl)carbamoyl]butyl}-5-hydroxybenzamide] | 445 nM | > 200000 nM |  |  |
| CN(C)C(=O)[C@H](CCCNC(=N)N)NC(=O)c1cc(O)c(Br)c(OCCc2ccc(Cl)cc2Cl)c1 [Example 45] | 31 nM | > 200000 nM |  |  |
| N=C(N)NCCC[C@H](NC(=O)c1cc(O)c(Br)c(OCCc2ccc(Cl)cc2Cl)c1)C(=O)O [Example 46] | 59 nM | > 200000 nM |  |  |
| CCCOC(=O)[C@H](CCCNC(=N)N)NC(=O)c1cc(O)c(Br)c(OCCc2ccc(Cl)cc2Cl)c1 [Example 47] | 21 nM | > 200000 nM |  |  |
| COc1ccc(C(=O)N[C@@H](CCCNC(=N)N)C(=O)N(C)C)cc1OCCc1ccc(Cl)cc1Cl [Example 48] | 560 nM | > 200000 nM |  |  |
| CCCOC(=O)[C@H](CCCNC(=N)N)NC(=O)c1ccc(OC)c(OCCc2ccc(Cl)cc2Cl)c1 [Example 50] | 729 nM | > 200000 nM |  |  |

— patent publication US6664393B2 (priority 1999, dated 2003)
